Measured values: PubChem BioAssay (NCI)
Values joined by “and” are separate entries in the source; they are usually repeats but may differ in a detail not shown here. Identical values can stand only once.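 Dose response: 5 concentrations. Exposure: 48 h. Format: 96-well plates. Endpoint: linear interpolation; highest concentration if not reached. The concentration for 50% growth inhibition is given as GI50. TGI is the concentration that stops growth completely.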

What was measured:
Test in all cases: NCI-60 cell line screen, 48 h
[1] = system: SK-MEL-5 melanoma
[2] = system: OVCAR-3 ovarian
[3] = system: OVCAR-4 ovarian
[4] = system: UACC-62 melanoma
[5] = system: SNB-75 CNS
[6] = system: NCI-H460 lung
[7] = system: SK-MEL-28 melanoma
[8] = system: HOP-92 NSCLC
[9] = system: K-562 leukemia
[10] = system: SR leukemia

SMILES | GI50 [1] | TGI [1] | GI50 [2] | TGI [2] | GI50 [3] | TGI [3] | GI50 [4] | TGI [4] | GI50 [5] | TGI [5] | GI50 [6] | TGI [6] | GI50 [7] | TGI [7] | GI50 [8] | TGI [8] | GI50 [9] | TGI [9] | GI50 [10] | TGI [10]
CC(=O)[CH-]C(=O)c1ccccc1.CC(=O)[CH-]C(=O)c1ccccc1.[O-]c1ccc(O)cc1.[O-]c1ccc(O)cc1.[Ti+4] | 16.2 µM | 30.3 µM | 13.9 µM | 27.2 µM | 18.2 µM | 32.3 µM | 16.2 µM | 31.3 µM | 14.3 µM | 28.1 µM | 14.2 µM | 44.6 µM | 18.6 µM | 35.7 µM | 14.1 µM | 28.9 µM | 15.4 µM | 76 µM | – | –
CC(=O)OC1C(O)COC(Oc2c(C)c3c4c(c2O)[C@@H](C)CC[C@@H]4[C@@H](C)C[C@H]3C=C(C)C)C1O (some centres not stated) | 15.3 µM | 32.4 µM | 13.5 µM | 28.2 µM | 16.8 µM | 47.1 µM | 16.3 µM | 36 µM | – | – | 16.3 µM | 47.1 µM | 22.3 µM | 48.2 µM | 15.6 µM | 32 µM | 10.3 µM | 30.2 µM | 3.87 µM | 19.1 µM
COc1ccc(CNCCCN2C(=O)c3ccc4c5c(ccc(c35)C2=O)C(=O)N(CCCNCCCCNCCCN)C4=O)c(OC)c1OC | – | – | 1.17 µM | 2.48 µM | 1.02 µM | 3.08 µM | 1.48 µM | 4.37 µM | 1.27 µM | 3.63 µM | 0.703 µM | 7.03 µM | 1.89 µM | 4.81 µM | – | – | 0.761 µM | 12.7 µM | 1.31 µM | 17.4 µM
CCC(=O)[O-].CCC(=O)[O-].N.N.N.N.[Co+3].[O-][Cl+3]([O-])([O-])[O-] | > 100 µM | > 100 µM | > 100 µM | > 100 µM | > 100 µM | > 100 µM | > 100 µM | > 100 µM | > 100 µM | > 100 µM | > 100 µM | > 100 µM | > 100 µM | > 100 µM | 27.2 µM | > 100 µM | > 100 µM | > 100 µM | – | –
C=C(C)[C@@H]1CC[C@]2(C)[C@H](CC=C3[C@@H]4CC(C)(C)CC[C@]4(C(=O)OC)CC[C@]32C)[C@@]1(C)CC/C(N)=N/O | 1.77 µM | 3.23 µM | 1.67 µM | 3.18 µM | 2.16 µM | 7.23 µM | 1.52 µM | 3.11 µM | – | – | 1.89 µM | 4.03 µM | 2.3 µM | 5.57 µM | 1.42 µM | 3.2 µM | 2.47 µM | > 100 µM | 1.81 µM | 5.2 µM
NC(N)=NS(=O)(=O)c1ccc(NC(=O)c2ccc(Cl)c3c(Nc4ccc(S(=O)(=O)N=C(N)N)cc4)c4ccccc4nc23)cc1 | – | – | – | > 100 µM | – | > 100 µM | – | > 100 µM | – | 98.5 µM | – | > 100 µM | – | > 100 µM | – | 79.9 µM | – | > 100 µM | – | –
CCOc1ccc2c(-c3ccnc(Nc4cccc(C(F)(F)F)c4)n3)cnn2n1 | > 25 µM | > 25 µM | 8.57 µM | > 25 µM | 9.46 µM | > 25 µM | 11.5 µM | > 25 µM | 9.81 µM | > 25 µM | 9.05 µM | > 25 µM | > 25 µM | > 25 µM | 5.05 µM | 24 µM | 15.9 µM | > 25 µM | – | –
CC(=O)N1C(=O)C(=O)c2cc(Cl)ccc21 | – | > 100 µM | – | > 100 µM | – | > 100 µM | – | > 100 µM | – | > 100 µM | – | > 100 µM | – | > 100 µM | – | – | – | > 100 µM | – | > 100 µM
COC(=O)c1c(C(=O)OC)c(C(=O)OC)c(C(=O)OC)c1C(=O)OC | – | > 100 µM | – | > 100 µM | – | > 100 µM | – | > 100 µM | – | > 100 µM | – | > 100 µM | – | > 100 µM | – | > 100 µM | – | > 100 µM | – | –
O=C1c2ccccc2C(=O)c2c1c(NCCNCCO)c1cc[nH]c1c2NCCNCCO | 3.17 µM | 16.4 µM | 3.57 µM | > 26.1 µM | 14.2 µM | 45.2 µM | 1.48 µM | – | 9.77 µM | > 100 µM | 7.78 µM | > 60.1 µM | 3.27 µM | 20.5 µM | 3.06 µM | 16.5 µM | 1.63 µM | – | – | –
COc1ccc(-c2ccc(=O)oc2-c2cc(OC)c(OC)c(OC)c2)cc1O | < 0.01 µM | 3.45 µM | < 0.01 µM | 0.16 µM | 0.283 µM | > 100 µM | < 0.0402 µM | > 100 µM | 0.0389 µM | > 100 µM | 0.0244 µM | – | 1.64 µM | > 100 µM | – | > 100 µM | < 0.0229 µM | > 100 µM | – | –
O=c1c2ccccc2c(C=NCCNCCO)c2oc3ccccc3n12 | 7.16 µM | 20.1 µM | 11.7 µM | 24 µM | 16.6 µM | 36 µM | 11.6 µM | 23.8 µM | – | – | 2.9 µM | 11 µM | – | – | 11.7 µM | 26.9 µM | 4.31 µM | 16.4 µM | 2.48 µM | 6.62 µM
NCC(=O)OCN1C(=O)C2C3C=CC(C2C1=O)C1C2C(=O)N(COC(=O)CN)C(=O)C2C31 (configuration not stated) | – | 51.7 µM and 34 µM | – | 82.1 µM and 93.4 µM | – | 39.1 µM and 55.4 µM | – | 50.5 µM and 56 µM | – | 62.6 µM and > 100 µM | – | 35.8 µM and 34.3 µM | – | 35.3 µM and 40.8 µM | – | > 100 µM | – | 60.9 µM and > 100 µM | – | –
COc1cccc(NC(=O)c2ccc(C(F)(F)F)nc2Nc2ccc(Cl)cc2C)c1 | 14.6 µM | 27.8 µM | 4.69 µM | 19.9 µM | 14.9 µM | 28.6 µM | 14.2 µM | 27.2 µM | 12.3 µM | 25.5 µM | 9.01 µM | 24.1 µM | 15 µM | 28.8 µM | 4.76 µM | 21.4 µM | 13.9 µM | 38.8 µM | – | –
